# Reference: patent publication US7230166B2, “Variety of four-leaf clover and a method for breeding the same” (priority 2002, dated 2007)
# Key:
# Assay type in all cases: cell-based, white clover (Trifolium repense L.)
# [1] = test system: cultivated shoots of the clover; test: Effects of IAA/IBA and NAA on shoot growth and rooting of the cultivated shoots; settings: for Length of roots (cm) / Length of shoots (cm) / Numbers of roots/segments / Numbers of shoots/segments / Weight of shoots/segments: basic MS medium + SUCROSE 20 g/L;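 for Length of roots (cm): Auxin doses in mg/L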;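 for Length of shoots (cm): Auxin doses in mg/L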;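 for Numbers of roots/segments: Auxin doses in mg/L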;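 for Numbers of shoots/segments: Auxin doses in mg/L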;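 for Weight of shoots/segments (g): Auxin doses in mg/L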
# Method: The cultivation was carried out under the conditions of acidity of pH 5.5, 22˜25° C. and luminous intensity of 800 lux.
# [2] = test system: cut segments of the white clover; test: Effects of Ethyl Methane Sulfonate on the mutation of the shoots; settings: for Color of leaves / Heliophilous / Mutation ratio (%) / Numbers of leaves / Numbers of stems / Shape of leaves: 3.0 sec
# Excerpt: Two hundreds of wild-type white clovers, which were native in Korea, were harvested, wherein the respective clovers had three leaves and a stem of a length of about 7 cm.
# All leaves were removed from the clovers. Then, the stems of the clovers were cut at a length of about 3˜4 cm, which are transferred to a conical flask and subjected to a solution of ethyl alcohol of 70% for 30 seconds to sterilize the stems. Next, the segments of stems were washed with sterile water, which in turn were transferred to a solution of ethyl alcohol of 70% for 15 minutes to sterilize surfaces of the stem segments. Continuously, the stem segments were washed with sterile water three times.
# The sterilized segments of the white clovers were cut again at a length of 2˜3 mm in a clean bench, wherein each of the cut segments included growing point. The resulting cut segments of the white clover were treated with Ethyl Methane Sulfonate in order to induce mutation.
# Referring to the Table 1, shoots were respectively treated with Ethyl Methane Sulfonate of 0.1˜0.3 μg/L for 3 seconds. As the result, when the shoots were treated with Ethyl Methane Sulfonate of 0.2 μg/L, the ratio, regarding the growth of four leaves from the stem, is highest.
# [3] = test system: shoots of the white clover; test: Effects of BAP, IAA and NAA on the shoot propagation of the clover
# Method: Furthermore, in order to promote mutation and cell division of shoots of the white clover, the shoots were treated with cold water of 5° C. for 20 seconds, which in turn were transferred to a solution of Ethyl Methane Sulfonate of 0.2 μg/L for 3 seconds. Then, the shoots were washed with sterile water. […] The incubation of the shoots was carried out under the conditions of temperature of 21° C. and luminous intensity of 500 lux.
# [4] = test system: shoots of the clover; test: Effects of the density of sucrose in the medium on the propagation and growth of shoots
# Method: Meanwhile, sucrose of […] was added to the medium in order to reduce the callus formation and the transparency ratio during the cultivation of the shoots.
# [5] = medium with BAP of 1.0˜2.0 mg/L
# [6] = Sucrose 10 mg/L, basic MS medium + BAP 2.0 mg/L + IAA 0.5 mg/L
# [7] = Sucrose 15 mg/L, basic MS medium + BAP 2.0 mg/L + IAA 0.5 mg/L
# [8] = Sucrose 20 mg/L, basic MS medium + BAP 2.0 mg/L + IAA 0.5 mg/L
# [9] = Sucrose 25 mg/L, basic MS medium + BAP 2.0 mg/L + IAA 0.5 mg/L
# [10] = Sucrose 30 g/L, basic MS medium + BAP 2.0 mg/L + IAA 0.5 mg/L
smiles,measurement,setting,value
O=C(O)CCCc1c[nH]c2ccccc12 [IBA],Length of roots (cm),[1]; IBA 0.5,4.9 a cm
same,Length of shoots (cm),[1]; IBA 0.5,5.1 a cm
same,Numbers of roots/segments,[1]; IBA 0.5,2.2 ab
same,Numbers of shoots/segments,[1]; IBA 0.5,1.4 a
same,Weight of shoots/segments,[1]; IBA 0.5,3.4 g
same,Length of roots (cm),[1]; IBA 1.5,4.6 a cm
same,Length of shoots (cm),[1]; IBA 1.5,5.3 a cm
same,Numbers of roots/segments,[1]; IBA 1.5,2.8 ab
same,Numbers of shoots/segments,[1]; IBA 1.5,1.2 a
same,Weight of shoots/segments,[1]; IBA 1.5,4.66 g
same,Length of roots (cm),[1]; IBA 2.0,5.1 a cm
same,Length of shoots (cm),[1]; IBA 2.0,5.1 a cm
same,Numbers of roots/segments,[1]; IBA 2.0,3.4 a
same,Numbers of shoots/segments,[1]; IBA 2.0,1.0 a
same,Weight of shoots/segments,[1]; IBA 2.0,4.21 g
same,Length of roots (cm),[1]; IBA 5.0,3.1 b cm
same,Length of shoots (cm),[1]; IBA 5.0,4.7 a cm
same,Numbers of roots/segments,[1]; IBA 5.0,1.2 b
same,Numbers of shoots/segments,[1]; IBA 5.0,1
same,Weight of shoots/segments,[1]; IBA 5.0,3.33 g
same,rooting of the shoots,[1]; IBA of 0.5 mg/L added to the basic MS medium,induced well
"CCOS(C)(=O)=O [EMS, Ethyl Methane Sulfonate]",Color of leaves,[2]; EMS 0.1 μg/L,Light
same,Heliophilous,[2]; EMS 0.1 μg/L,0.3c
same,Mutation ratio (%),[2]; EMS 0.1 μg/L,12c %
same,Numbers of leaves,[2]; EMS 0.1 μg/L,4c
same,Numbers of stems,[2]; EMS 0.1 μg/L,6c
same,Shape of leaves,[2]; EMS 0.1 μg/L,Heart
same,Color of leaves,[2]; EMS 0.2 μg/L,Light
same,Heliophilous,[2]; EMS 0.2 μg/L,1.5a
same,Mutation ratio (%),[2]; EMS 0.2 μg/L,25a %
same,Numbers of leaves,[2]; EMS 0.2 μg/L,4a
same,Numbers of stems,[2]; EMS 0.2 μg/L,10b
same,Shape of leaves,[2]; EMS 0.2 μg/L,Heart
same,Color of leaves,[2]; EMS 0.3 μg/L,Light
same,Heliophilous,[2]; EMS 0.3 μg/L,2.5b
same,Mutation ratio (%),[2]; EMS 0.3 μg/L,18b %
same,Numbers of leaves,[2]; EMS 0.3 μg/L,4b
same,Numbers of stems,[2]; EMS 0.3 μg/L,8b
same,Shape of leaves,[2]; EMS 0.3 μg/L,Heart
same,ratio regarding the growth of four leaves from the stem,"[2]; Ethyl Methane Sulfonate of 0.2 μg/L for 3 seconds, among 0.1˜0.3 μg/L",highest
"c1ccc(CNc2ncnc3nc[nH]c23)cc1 [BAP, 6-Benzylaminopurine]",incubation efficiency of the shoots,[3]; in proportion to the density of the BAP,enhanced
same,average number of the shoots,[3]; [5],more than 2.7
same,transparency ratio,[3]; [5],more than 42.3%
"OC[C@H]1O[C@@](CO)(O[C@H]2O[C@H](CO)[C@@H](O)[C@H](O)[C@H]2O)[C@@H](O)[C@@H]1O [Sucrose, sucrose]",Length of shoots (cm),[4]; [6],3.2 a cm
same,Numbers of shoots/segments,[4]; [6],3.2 a^a
same,Weight of shoots/segments (g),[4]; [6],1.66 a g
same,transparency ratio (%),[4]; [6],3.46 b %
same,Length of shoots (cm),[4]; [7],4.1 a cm
same,Numbers of shoots/segments,[4]; [7],3.9 a
same,Weight of shoots/segments (g),[4]; [7],2.13 ab g
same,transparency ratio (%),[4]; [7],40.1 a %
same,Length of shoots (cm),[4]; [8],4.8 a cm
same,Numbers of shoots/segments,[4]; [8],4.0 a
same,Weight of shoots/segments (g),[4]; [8],2.17 ab g
same,transparency ratio (%),[4]; [8],46.7 a %
same,Callus formation,[4]; [9],++
same,Length of shoots (cm),[4]; [9],3.9 a cm
same,Numbers of shoots/segments,[4]; [9],3.6 a
same,Weight of shoots/segments (g),[4]; [9],2.43 ab g
same,transparency ratio (%),[4]; [9],42.4 a %
same,Callus formation,[4]; [10],+++
same,Length of shoots (cm),[4]; [10],4.4 a cm
same,Numbers of shoots/segments,[4]; [10],3.4 a
same,Weight of shoots/segments (g),[4]; [10],2.73 a g
same,transparency ratio (%),[4]; [10],50.7 a %
same,Callus formation,[4]; sucrose of 15˜20 g/L in the medium,callus was generated only
"O=C(O)Cc1cccc2ccccc12 [NAA, α-Naphthaleneacetic Acid]",Length of roots (cm),[1]; NAA 0.5,4.8 a cm
same,Length of shoots (cm),[1]; NAA 0.5,4.6 a cm
same,Numbers of roots/segments,[1]; NAA 0.5,3.2 a
same,Numbers of shoots/segments,[1]; NAA 0.5,1.0 a
same,Weight of shoots/segments,[1]; NAA 0.5,3.92 g
same,Length of roots (cm),[1]; NAA 1.0,3.6 ab cm
same,Length of shoots (cm),[1]; NAA 1.0,4.8 a cm
same,Numbers of roots/segments,[1]; NAA 1.0,2.5 ab
same,Numbers of shoots/segments,[1]; NAA 1.0,1.1 a
same,Weight of shoots/segments,[1]; NAA 1.0,4.21 g
same,Length of roots (cm),[1]; NAA 2.0,3.4 b cm
same,Length of shoots (cm),[1]; NAA 2.0,4.8 a cm
same,Numbers of roots/segments,[1]; NAA 2.0,1.9 b
same,Weight of shoots/segments,[1]; NAA 2.0,3.42 g
same,Length of roots (cm),[1]; NAA 5.0,3.2 b cm
same,Length of shoots (cm),[1]; NAA 5.0,4.2 a cm
same,Numbers of roots/segments,[1]; NAA 5.0,1.6 b
same,Numbers of shoots/segments,[1]; NAA 5.0,1.0 a
same,Weight of shoots/segments,[1]; NAA 5.0,3.72 g
same,rooting of the shoots,[1]; NAA of 0.5˜1.0 mg/L added to the basic MS medium,induced well
